Experimental data taken from US11066443B2 (Hoffmann-La Roche Inc., priority 2017, dated 2021).

What follows are compounds tested on P. aeruginosa NCTC11454 (assay: Antimicrobial susceptibility testing: 50% growth inhibitory concentration (IC50) determination). Conditions: Pseudomonas aeruginosa, Iso-Sensitest broth, OD 600 nm every 20 minutes over 16h, growth inhibition during logarithmic growth.
Type: cell-based
Experimental: The in vitro antimicrobial activity of the compounds was alternatively determined according to the following procedure: The assay used a 10-points Iso-Sensitest broth medium to measure quantitatively the in vitro activity of the compounds against P. aeruginosa NCTC11454. Stock compounds in DMSO were serially twofold diluted (e.g. range from 50 to 0.097 μM final concentration) in 384 wells microtiter plates and inoculated with 49 μl the bacterial suspension in Iso-Sensitest medium to have a final cell concentration of ˜5×10^(5) CFU/ml in a final volume/well of 50 ul/well. Microtiter plates were incubated at 35±2° C. Bacterial cell growth was determined with the measurement of optical density at λ=600 nm each 20 minutes over a time course of 16h. Growth inhibition was calculated during the logarithmic growth of the bacterial cells with determination of the concentration inhibiting 50% (IC50) and 90% (IC90) of the growth. Table 2 provides the 50% growth inhibitory concentrations (IC50) in micromoles per liter of the compounds of present invention obtained against P. aeruginosa NCTC11454.

In order of rising IC50:
1. CN1C(=O)[C@H](CCCCN)NC(=O)[C@H](CCCN)NCc2cccnc2Sc2c(Cl)cc(C#CCOCc3ccccc3)cc2CNC(=O)[C@@H]1Cc1c[nH]c2ccccc12 [Example 45, (11S,14S,17S)-14-(4-Amino-butyl)-11-(3-amino-propyl)-23-(3-benzyloxy-prop-1-ynyl)-25-chloro-17-(1H-indol-3-ylmethyl)-16-methyl-2-thia-4,10,13,16,19-pentaaza-tricyclo[19.4.0.0*3,8*]pentacosa-1(25),3(8),4,6,21,23-hexaene-12,15,18-trione]  6.07 µM
2. CN1C(=O)[C@H](CCCCN)NC(=O)[C@H](CCCN)NCc2cc(-c3ccc(CN)cc3)ccc2Sc2c(Cl)cccc2CNC(=O)[C@@H]1Cc1c[nH]c2ccccc12 [Example 50, (12S,15S,18S)-15-(4-Amino-butyl)-23-(4-aminomethyl-phenyl)-18-(3-amino-propyl)-4-chloro-12-(1H-indol-3-ylmethyl)-13-methyl-2-thia-10,13,16,19-tetraaza-tricyclo[19.4.0.0*3,8*]pentacosa-1(25),3,5,7,21,23-hexaene-11,14,17-trione]  8.47 µM
3. CN1C(=O)[C@H](CCCCN)NC(=O)[C@H](CCCN)NCc2ccccc2Sc2c(Cl)ccc(C(F)(F)F)c2CNC(=O)[C@@H]1Cc1c[nH]c2ccccc12 [Example 10, (12S,15S,18S)-15-(4-Amino-butyl)-18-(3-amino-propyl)-4-chloro-12-(1H-indol-3-ylmethyl)-13-methyl-7-trifluoromethyl-2-thia-10,13,16,19-tetraaza-tricyclo[19.4.0.0*3,8*]pentacosa-1(25),3,5,7,21,23-hexaene-11,14,17-trione]  10.7 µM
4. CN1C(=O)[C@H](CCCN)NC(=O)[C@H](CCCN)NCc2ccccc2Sc2c(Cl)cc(Cl)cc2CNC(=O)[C@@H]1Cc1c[nH]c2ccccc12 [Example 30, (12S,15S,18S)-15,18-Bis-(3-amino-propyl)-4,6-dichloro-12-(1H-indol-3-ylmethyl)-13-methyl-2-thia-10,13,16,19-tetraaza-tricyclo[19.4.0.0*3,8*]pentacosa-1(25),3,5,7,21,23-hexaene-11,14,17-trione]  11.1 µM
5. CN1C(=O)[C@H](CCCCN)NC(=O)[C@H](CCCN)NCc2ccc(-c3ccccc3)cc2Sc2c(Cl)cccc2CNC(=O)[C@@H]1Cc1c[nH]c2ccccc12 [Example 52, (12S,15S,18S)-15-(4-Amino-butyl)-18-(3-amino-propyl)-4-chloro-12-(1H-indol-3-ylmethyl)-13-methyl-24-phenyl-2-thia-10,13,16,19-tetraaza-tricyclo[19.4.0.0*3,8*]pentacosa-1(25),3,5,7,21,23-hexaene-11,14,17-trione]  11.6 µM
6. CN1C(=O)[C@H](CCCCN)NC(=O)[C@H](CCCN)NCc2ccccc2Sc2c(Cl)cc(Br)cc2CNC(=O)[C@@H]1Cc1c[nH]c2ccccc12 [Example 36, (12S,15S,18S)-15-(4-Amino-butyl)-18-(3-amino-propyl)-6-bromo-4-chloro-12-(1H-indol-3-ylmethyl)-13-methyl-2-thia-10,13,16,19-tetraaza-tricyclo[19.4.0.0*3,8*]pentacosa-1(25),3,5,7,21,23-hexaene-11,14,17-trione]  12.5 µM
7. CN1C(=O)[C@H](CCCCN)NC(=O)[C@H](CCCN)NCc2ccccc2Sc2cc(C(F)(F)F)ccc2CNC(=O)[C@@H]1Cc1c[nH]c2ccccc12 [Example 4, (12S,15S,18S)-15-(4-Amino-butyl)-18-(3-amino-propyl)-12-(1H-indol-3-ylmethyl)-13-methyl-5-trifluoromethyl-2-thia-10,13,16,19-tetraaza-tricyclo[19.4.0.0*3,8*]pentacosa-1(21),3,5,7,22,24-hexaene-11,14,17-trione]  12.6 µM
8. CN1C(=O)[C@H](CCCCN)NC(=O)[C@H](CCCN)NCc2ccccc2Sc2ccc(Cl)cc2CNC(=O)[C@@H]1Cc1cn(C)c2cc(Cl)ccc12 [Example 8, (12S,15S,18S)-15-(4-Amino-butyl)-18-(3-amino-propyl)-6-chloro-12-(6-chloro-1-methyl-1H-indol-3-ylmethyl)-13-methyl-2-thia-10,13,16,19-tetraaza-tricyclo[19.4.0.0*3,8*]pentacosa-1(21),3,5,7,22,24-hexaene-11,14,17-trione]  13.2 µM
9. CN1C(=O)[C@H](CCCCN)NC(=O)[C@H](CCC(N)=O)NCc2ccccc2Sc2c(cc(-c3ccccc3)cc2C(F)(F)F)CNC(=O)[C@@H]1Cc1c[nH]c2ccccc12 [Example 38, 3-[(11S,14S,17S)-14-(4-Amino-butyl)-17-(1H-indol-3-ylmethyl)-16-methyl-12,15,18-trioxo-23-phenyl-25-trifluoromethyl-2-thia-10,13,16,19-tetraaza-tricyclo[19.4.0.0*3,8*]pentacosa-1(25),3,5,7,21,23-hexaen-11-yl]-propionamide]  14.5 µM
10. CN1C(=O)[C@H](CCCCN)NC(=O)[C@H](CCCN)NCc2ncccc2Sc2c(Cl)cc(C(F)(F)F)cc2CNC(=O)[C@@H]1Cc1c[nH]c2ccccc12 [Example 24, (11S,14S,17S)-14-(4-Amino-butyl)-11-(3-amino-propyl)-25-chloro-17-(1H-indol-3-ylmethyl)-16-methyl-23-trifluoromethyl-2-thia-7,10,13,16,19-pentaaza-tricyclo[19.4.0.0*3,8*]pentacosa-1(25),3,5,7,21,23-hexaene-12,15,18-trione]  22.4 µM
11. CN1C(=O)[C@H](CCC(N)=O)NC(=O)[C@H](CCCN)NCc2ccccc2Sc2c(cc(-c3ccccc3)cc2C(F)(F)F)CNC(=O)[C@@H]1Cc1c[nH]c2ccccc12 [Example 39, 3-[(11S,14S,17S)-11-(3-Amino-propyl)-17-(1H-indol-3-ylmethyl)-16-methyl-12,15,18-trioxo-23-phenyl-25-trifluoromethyl-2-thia-10,13,16,19-tetraaza-tricyclo[19.4.0.0*3,8*]pentacosa-1(25),3,5,7,21,23-hexaen-14-yl]-propionamide]  23.5 µM
12. CN1C(=O)[C@H](CCCCN)NC(=O)[C@H](CCCN)NCc2ccccc2Sc2ccccc2CNC(=O)[C@@H]1Cc1c[nH]c2cc(Cl)ccc12 [Example 5, (12S,15S,18S)-15-(4-Amino-butyl)-18-(3-amino-propyl)-12-(6-chloro-1H-indol-3-ylmethyl)-13-methyl-2-thia-10,13,16,19-tetraaza-tricyclo[19.4.0.0*3,8*]pentacosa-1(21),3,5,7,22,24-hexaene-11,14,17-trione]  24.4 µM
13. CN1C(=O)[C@H](CCCCN)NC(=O)[C@H](CCCN)NCc2ccccc2Sc2ccc(Cl)c(Cl)c2CNC(=O)[C@@H]1Cc1c[nH]c2ccccc12 [Example 9, (12S,15S,18S)-15-(4-Amino-butyl)-18-(3-amino-propyl)-6,7-dichloro-12-(1H-indol-3-ylmethyl)-13-methyl-2-thia-10,13,16,19-tetraaza-tricyclo[19.4.0.0*3,8*]pentacosa-1(25),3,5,7,21,23-hexaene-11,14,17-trione]  24.5 µM
14. CN1C(=O)[C@H](CCCCN)NC(=O)[C@H](CCCN)NCc2cccnc2Sc2c(Cl)ccc(-c3ccc(N4CCNCC4)cc3)c2CNC(=O)[C@@H]1Cc1c[nH]c2ccccc12 [Example 55, (11S,14S,17S)-14-(4-Amino-butyl)-11-(3-amino-propyl)-25-chloro-17-(1H-indol-3-ylmethyl)-16-methyl-22-(4-piperazin-1-yl-phenyl)-2-thia-4,10,13,16,19-pentaaza-tricyclo[19.4.0.0*3,8*]pentacosa-1(25),3(8),4,6,21,2-hexaene-12,15,18-trione]  26.6 µM
